Laboratory results from patent US10837044B2, “Automated method for analyzing and interpreting an antimicrobial susceptibility” (FONDATION MEDITERRANEE INFECTION, priority 2014, dated 2020).

How the values were obtained:
Experiment in all cases: antibiogram by diffusion on Mueller-Hinton agar with antibiotic wafers
Type in all cases: cell-based
[1] = test system: Klebsiella pneumoniae; conditions: Table C2, sixteen wafers, square dish
Procedure: (§1) The inoculum was prepared by making a suspension of bacteria directly from colonies put into solution in tubes of sterile water so that the solution presented accurate opacity as determined with a spectrophotometer equivalent to the opacity of a 0.5 standard in the McFarland range. This bacterial suspension concentration is standardized since a more concentrated inoculum would lead to smaller diameters for the inhibition zone, and vice versa.
(§2) The inoculum corresponds to concentrations of about 10^8 CFU/mL for Escherichia coli, Klebsiella pneumoniae, Proteus mirabilis, Klebsiella oxytoca, Enterobacter cloacea, Enterobacter aerogenes, Entercoccus faecalis, Pseudomonas aeruginosa, Staphylococcus aureus, and Staphylococcus epidermidis. These are the ten species bacteria that are encountered the most frequently in human pathologies.
(§3) 1.2) The bacterial sample was deposited on a solid culture medium in a petri dish having a diameter of 90 mm or in a square dish having a side of 120 mm, the medium being constituted by a Mueller-Hinton agar specific for (EUCAST) antibiograms. Ideally, it should be used in the 15 minutes (min) following preparation of the suspension.
(§4) Seeding was done by the method of diffusion on an agar medium by flooding in which excess bacterial suspension was added to the Mueller-Hinton agar. After homogenizing, excess liquid was discarded in order to avoid over-inoculating the dishes. It is necessary to wait beforehand for the surface of the agar to be dry in order to eliminate any trace of moisture encouraging bacterial invasion.
(§5) The disks of the antibiotic wafers were deposited within 15 min after inoculating the agar. The antibiotic impregnated disks were deposited using an automatic dispenser that placed the disks firmly on the surface of the inoculated and dried agar. The number of disks deposited per dish was limited because of inhibition zone overlap and in order to limit interference between antibiotics. It is important for the inhibition diameters to be measurable. The antibiograms were then incubated at 37° C. for 18 hours (h) to 24 h.
(§6) The antibiotic wafers were made of high quality absorbent paper with a diameter of 6 mm and they were impregnated with antibiotics at concentrations in the range 1 micrograms (μg) to 300 μg approximately, depending on the antibiotic.
(§7) In the examples below, reference disks were used as sold by the suppliers i2a (Montpellier, France), BD (Becton Dickinson, USA), Bio-Rad (Hercules, USA), Biomerieux (Marcy l′Etoile, France) containing the following antibiotics and carrying the following codes and the following doses: AMX (amoxicillin) 25 μg: AMC (amoxicillin-clavulanic acid) 20 μg-10 μg; GM for gentamicin, 15 μg; SXT (trimethoprim-sulfamethoxazole) 1.25/23.75 μg; TIC (ticarcillin) 75 μg; TCC (ticarcillin-clavulanic acid) […]; TZP (piperacillin-tazobactam) 75/10 μg; CAZ (ceftazidime) 30 μg; IMP or IPM (imipeneme) 10 μg; COL (colistin) 50 μg; FOX (cefoxitine) 30 μg; VAN (vancomycin) 30 μg; TEC (teicoplanin) 30 μg; CLI or DA (clindamycin) 2 μg; CRO (ceftriaxone) 30 μg; CIP (ciprofloxacin) 5 μg; OFX (ofloxacin) 5 μg; CTX (cefotaxime) 5 μg; AN or AK (amikacin) 30 μg; TM (tobramycin) 10 μg; FOX (cefoxitine) 30 μg; ATM (aztreonam) 30 μg; ERT (ertapenem) 10 μg; FF (fosfomycin) 200 μg; DO (doxycycline) 30 μg; K (kanamycin) 1000 μg; L (lincomycin) 15 μs; LNZ (linezolid) 10 μg; AN (nalidixic acid) 30 μg; NOR (norfloxacin) 10 μg; PT (pristinamycin) 15 μg; RA (rifampicin) 5 μg; and E (erythromycin) 15 μg.

[2] = test system: Escherichia coli; conditions: Table C2, square dish
Procedure: as §1, §2, §3, §4, §5, §6, §7

[3] = test system: Staphylococcus aureus; conditions: Table C2, sixteen wafers, square dish
Procedure: as §1, §2, §3, §4, §5, §6, §7

[4] = K. pneumoniae phenotype Cephalosporinase + R to aminosides + R to cotrimoxazole
[5] = E. coli phenotype Cephalosporinase + R to fluoroquinolones + R to cotrimoxazole + partial R to aminosides, sixteen wafers
[6] = E. coli phenotype Hl penicillinase + R to fluoroquinolones + R to cotrimoxazole + partial R to aminosides, sixteen wafers
[7] = E. coli phenotype Wild, sixteen wafers in a rectangular grid
[8] = S. aureus phenotype R to methicilline, R to aminosides, fluoroquinolones, to rifampicie, to macrolides and the like

Compound	resistant (I/R) or sensitive (S) [1, 4]	resistant (I/R) or sensitive (S) ([1]; K. pneumoniae phenotype Wild)	resistant (I/R) or sensitive (S) [2, 5]	resistant (I/R) or sensitive (S) [2, 6]	resistant (I/R) or sensitive (S) [2, 7]	resistant (I/R) or sensitive (S) [3, 8]	resistant (I/R) or sensitive (S) ([3]; S. aureus phenotype Wild)
NCC[C@H](O)C(=O)N[C@@H]1C[C@H](N)[C@@H](O[C@H]2O[C@H](CN)[C@@H](O)[C@H](O)[C@H]2O)[C@H](O)[C@H]1O[C@H]1O[C@H](CO)[C@@H](O)[C@H](N)[C@H]1O [AK, amikacin]	S	R	S	S	S	–	–
CC[C@H]1OC(=O)[C@H](C)[C@@H](O[C@H]2C[C@@](C)(OC)[C@@H](O)[C@H](C)O2)[C@H](C)[C@@H](O[C@@H]2O[C@H](C)C[C@H](N(C)C)[C@H]2O)[C@](C)(O)C[C@@H](C)C(=O)[C@H](C)[C@@H](O)[C@]1(C)O [E, erythromycin]	–	–	–	–	–	R	S
CO/N=C(\C(=O)N[C@@H]1C(=O)N2C(C(=O)O)=C(COC(C)=O)CS[C@H]12)c1csc(N)n1 [CTX, cefotaxime]	R	R	R	S	S	–	–
NC[C@H]1O[C@H](O[C@H]2[C@H](O)[C@@H](O[C@H]3O[C@H](CO)[C@@H](O)[C@H](N)[C@H]3O)[C@H](N)C[C@@H]2N)[C@H](N)C[C@@H]1O [TOB, tobramycin]	R	R	R	R	S	R	S
Cc1onc(-c2ccccc2)c1C(=O)N[C@@H]1C(=O)N2[C@@H]1SC(C)(C)[C@@H]2C(=O)O [OXA, oxacillin]	–	–	–	–	–	R	S
CO[C@H]1/C=C/O[C@@]2(C)Oc3c(C)c(O)c4c(O)c(c(/C=N/N5CCN(C)CC5)c(O)c4c3C2=O)NC(=O)/C(C)=C\C=C\[C@H](C)[C@H](O)[C@@H](C)[C@@H](O)[C@@H](C)[C@H](OC(C)=O)[C@@H]1C [RA, rifampicin]	–	–	–	–	–	R	S
O=C(O)c1cn(C2CC2)c2cc(N3CCNCC3)c(F)cc2c1=O [CIP, ciprofloxacin]	R	S	R	R	S	R	S
C[C@@H]1O[C@@H]1P(=O)(O)O [FF, fosfomycin]	–	–	–	–	–	R	S
C[C@H]1[C@H](NC(=O)/C(=N\OC(C)(C)C(=O)O)c2csc(N)n2)C(=O)N1S(=O)(=O)O [ATM, aztreonam]	R	R	R	S	S	–	–
pristinamycin [PT]	–	–	–	–	–	R	S
CC(=O)NC[C@H]1CN(c2ccc(N3CCOCC3)c(F)c2)C(=O)O1 [LNZ, linezolid]	–	–	–	–	–	S	S
CC1COc2c(N3CCN(C)CC3)c(F)cc3c(=O)c(C(=O)O)cn1c23 (stereo not drawn) [OFX, ofloxacin]	R	S	R	R	S	–	–
C[C@H]1c2cccc(O)c2C(=O)C2=C(O)[C@]3(O)C(=O)C(C(N)=O)=C(O)[C@@H](N(C)C)[C@@H]3[C@@H](O)[C@@H]21 [DO, doxycycline]	–	–	–	–	–	R	S
